Measured values taken from patent publication US4731363A, “Thromboxane synthase inhibitors as insulin lowering agents and antiobesity agents” (priority 1986, dated 1988).

Columns and labels:
[1] = molecular target: TXA2 Synthase; experiment: TXA2 synthase IC50 as listed in Table I (enzyme source not stated); type: biochemical
Procedure: Determination of Inhibition of Thromboxane Synthase Activity Isolation of Human Platelet Microsomes
Assay for Thromboxane Synthase
To a 12×75 mm tube containing [1-^14 C] PGH2 (2 μg, 0.01 μCi or 0.05 μCi) and inhibitor (1 mM final assay concentration, in 10 μl of ethanol) in 225 μl of phosphate buffer (0.1M, pH 7.5), was added to an aliquot of guinea pig lung microsomes (25 μl, containing 400 μg protein) or an aliquot of human platelet microsomes (25 μl, containing .congruent.[…] protein). The solution was incubated in a 22° water bath for 2 min.; ether (1 ml) and citric acid (25 μMoles) were added, and the tube plunged into an acetone-dry ice bath. The ether extract was transferred to a 1.0 ml Reacti-vial, and the volume reduced under nitrogen to .congruent.50 μl.
The extract was applied to an I.T.L.C., type SG, glass fiber sheet (Gelman Instrument Co., Ann Arbor, Mich.) and developed in isooctane; methyl ethyl ketone: acetic acid (100:19:1 or 100:9:1) (19). The sheets were air dried and scanned using a Berthold LB 2760 Radiochromatographic Scanner. In certain cases, based on the radiochromatographic profile obtained, the sheets were cut, the appropriate regions placed in scintillation vials, 10 ml of LSC cocktail (Yorktown Research, S. Hackensack, NJ) added, and the relative cpm determined.

[2] = system: obese Zucker rats; experiment: Antiobesity activity in vivo in obese Zucker rats; set-up: species or system rat; conditions: 16 to 18 days; for Body Weight Gain: treated minus control
Procedure: Determination of Antiobesity Activity
Thromboxane synthase inhibitors were evaluated for antiobesity activity in vivo. Body weight, food intake and circulating insulin levels were monitored during periods of drug treatment. Analysis of carcass composition was performed at study termination.
Animals, Diets and Drug Administration
Lean and obese male and female Zucker rats bred at Hoffmann-La Roche Inc. (Nutley, NJ) were kept in wire-bottomed individual cages in light (12 hr dark and light cycles beginning at 6 p.m. and 6 a.m., respectively) and temperature-controlled (22°) rooms. All rats were fed chow diet (Ralston Purina Co., St. Louis, MO) ad libitum until one to three weeks before the start of drug treatment, at which time they were trained to consume a high glucose low fat (1% corn oil) diet which is herein referred to as G-70:1% CO. Following the one to three-week training period on G-70:1% CO, the average daily food intake was calculated, and the rats were weighed and divided into groups of four to seven rats each.
The control animals continued to eat the G-70:1% CO diet ad libitum, and the experimental groups were given G-70:1% CO diet containing drug (also fed ad libitum). The amount of drug added to the diet of each experimental group was based on calculations of food consumed per kg body weight using data collected at the end of the training period. […] The period of drug treatment ranged from 16 to 18 days as noted in the legends to the tables and graph. Food intake and body weight were recorded either daily or twice a week throughout the duration of the study. The amount of drug administered was calculated from the food intake per kg body weight for each experimental group. Body weight data are reported as the difference between the body weight gains of control and drug-treated animals. Food intake and insulin data are reported as percent of control.
^a Average duration of treatment was 16 to 18 days.
^b Body weight gain was computed by taking the difference between the
weight gain of treated and control rats.

[3] = system: isolated perfused rat pancreas; experiment: Insulin secretion by isolated perfused rat pancreas; set-up: key: insulin AUC ratio: 1st glucose pulse / 2nd pulse with compound; conditions: 100 μM; 16.7 mM glucose; control 1.0 ± 0.04 (n = 5)
Procedure: Determination of Insulin-Secretory Activity in the Isolated Perfused Rat Pancreas
Pancreata were obtained from young adult female Charles River rats weighing from 200-300 g. The animals were anaesthesized with sodium pentobarbitol (45 mg/kg), injected intraperitoneally, and the pancreas with its intact vasculature was removed and connected to an extracorporeal perfusion apparatus.
The basic perfusion solution contained: 133 mM NaCl, 4.4 mM KCl, 2.5 mM MgSO4, 2.4 mM Ca gluconate, 1.5 mM KH2 PO4, 29.4 mM NaHCO3, 4% dextran and 0.2% bovine serum albumin and glucose as discussed below. The perfusion flow rate was kept constant at 4 ml/min. After a 15-20 min equilibration period, the experimental protocol was begun. The pancreatic effluent was collected in either one or four-minute fractions.
The perfusion was run in the following sequence:
30 min 16.7 mM glucose-internal control
30 min 16.7 mM glucose and test compound
5 min 20 mM arginine-to check pancreas viability
Test compounds were dissolved in 90% ethanol to a concentration of 25 mM and then diluted in the perfusion buffer to the desired concentration. The perfusion effluent was collected in one or four min fractions-the samples were checked immediately, aliquoted for submission to radioimmunoassay and stored at -20° C. until the time of assay. The radioimmunoassay of insulin was carried out by a back-titration method using a pure rat insulin standard.
To assess the inhibitory activity of the test compounds, an inhibition index was calculated. The inhibition index is derived by comparing the insulin secretion response from treated versus nontreated pancreas preparations. For each preparation, a ratio of insulin secretion was calculated from the area under the insulin secretion curve of the first pulse of 16.7 mM glucose divided by the area under the curve of the second pulse of 16.7 mM glucose containing compound.

IC50 [1]: 10 µM
SMILES: CC(=O)c1ccc(-n2ccnc2)cc1 [1-[4-(1H--imidazol-1-yl)phenyl]ethanone, 1-[4-(1H-imidazol-1-yl)phenyl]ethanone]
Food Consumption ([2]; 60 mg/kg in diet, P ≤ 0.05): 82 ± 3 % of control | Insulin ([2]; 60 mg/kg in diet, not marked significant): 66 ± 16 % of control | Body Weight Gain ([2]; 60 mg/kg in diet, P ≤ 0.05): -25 g | Food Consumption ([2]; 87 mg/kg in diet, P ≤ 0.05): 84 ± 1 % of control | Insulin ([2]; 87 mg/kg in diet, P ≤ 0.05): 32 ± 5 % of control | Body Weight Gain ([2]; 87 mg/kg in diet, P ≤ 0.05): -32 g | Food Consumption ([2]; 113 mg/kg in diet, P ≤ 0.05): 74 ± 1 % of control | Insulin ([2]; 113 mg/kg in diet, P ≤ 0.05): 24 ± 1 % of control | Body Weight Gain ([2]; 113 mg/kg in diet, P ≤ 0.05): -74 g | Insulin Secretion Inhibition Index [3]: 2
